Assay results taken from patent publication US9567322B2, “Substituted tetrahydropyrans and method of use” (AbbVie S.á.r.l., priority 2014, dated 2017).

Biological target: T1, F508delCFTR (Homo sapiens, UniProt P13569, DEL508-508)
T1 construct: expressed in transfected cells; host or cells: CFBE41o- (CFBE41o-F508delCFTR-HRP), doxycycline-inducible
Assay: Cell Surface Expression-Horse Radish Peroxidase (CSE-HRP) assay
Format: cell-based
Details: CFBE41o-F508delCFTR-HRP cells; for EC50: cell surface expression, luminescence readout, 18-24 hours at 33° C., highest concentration tested 20 μM, 8-point curve; for Maximum % activity: maximum at any tested concentration, normalized to on-plate positive control (3 μM) and DMSO
From the text: Cell Surface Expression-Horse Radish Peroxidase (CSE-HRP) Assay:
A cellular assay for measuring the F508delCFTR cell surface expression after correction with test compounds was developed in human lung derived epithelial cell line (CFBE41o-) (Veit G et al, (2012) Mol Biol Cell. 23(21): 4188-4202). This was achieved by expressing the F508delCFTR mutation along with a horseradish peroxidase (HRP) in the fourth exofacial loop and then measuring the HRP activity using luminescence readout from these cells, CFBE41o-F508delCFTR-HRP, that were incubated overnight with the test corrector compounds. Briefly, for this primary assay, the CFBE41o-F508delCFTR-HRP cells were plated in 384-well plates (Greiner Bio-one; Cat 781080) at 4,000 cells/well along with 0.5 μg/mL doxycycline to induce the F508delCFTR-HRP expression and further incubated at 37° C., 5% CO2 for 72 hours. The test compounds were then added at the required concentrations and further incubated for 18-24 hours at 33° C. The highest concentration tested was 20 μM with an 8-point concentration response curve using a 3-fold dilution. Three replicate plates were run to determine one EC50. All plates contained negative controls (dimethyl sulfoxide, DMSO) and positive controls (3 μM of 3-[(2R,4R)-4-({[1-(2,2-difluoro-1,3-benzodioxol-5-yl)cyclopropyl]carbonyl}amino)-7-methoxy-3,4-dihydro-2H-chromen-2-yl]benzoic acid) as well as on-plate concentration response of the positive control. Post incubation, the plates were washed 5× times with Dulbecco's phosphate buffered saline (DPBS), followed by the addition of the HRP substrate, luminol (50 μL), and measuring the HRP activity using luminescence readout on EnVision® Multilabel Plate Reader (Perkin Elmer; product number 2104-0010). The raw counts from the experiment are analyzed using Accelrys® Assay Explorer v3.3.
Z′ greater than 0.5 was used as passing quality control criteria for the plates.
The Z′ is defined as: 1−[3*SDPositive Control+3*SDNegative Control/Absolute(MeanPositive Control−MeanNegative Control)],
wherein “SD” is standard deviation.
The % activity measured at each of the 8 test concentrations of the test compound was normalized to the on-plate positive control using the following formula: % activity=[(test compound response−DMSO response)/(positive control response−DMSO response)]*100
The maximum % activity achieved for the test compound at any tested concentration is presented in Table 1 along with the EC50 calculated using the following general sigmoidal curve with variable Hill slope equation (described as Model 42 in the Accelrys® Assay Explorer v3.3 software): y=(a−d)/(1+(x/c)^b)+d General sigmoidal curve with concentration, response, top, bottom, EC50 and Hill slope.
This model describes a sigmoidal curve with an adjustable baseline, a. The equation can be used to fit curves where response is either increasing or decreasing with respect to the independent variable, “x”.
“x” is a concentration of drug under test.
“a” is the maximum response, and “d” is the minimum response
“c” is the inflection point (EC50) for the curve. That is, “y” is halfway between the lower and upper asymptotes when x=c.
“b” is the slope-factor or Hill coefficient. The sign of b is positive when the response increases with increasing dose and is negative when the response decreases with increasing dose (inhibition).

T1 sequence (P13569 with tags, fused parts or gaps DEL508-508): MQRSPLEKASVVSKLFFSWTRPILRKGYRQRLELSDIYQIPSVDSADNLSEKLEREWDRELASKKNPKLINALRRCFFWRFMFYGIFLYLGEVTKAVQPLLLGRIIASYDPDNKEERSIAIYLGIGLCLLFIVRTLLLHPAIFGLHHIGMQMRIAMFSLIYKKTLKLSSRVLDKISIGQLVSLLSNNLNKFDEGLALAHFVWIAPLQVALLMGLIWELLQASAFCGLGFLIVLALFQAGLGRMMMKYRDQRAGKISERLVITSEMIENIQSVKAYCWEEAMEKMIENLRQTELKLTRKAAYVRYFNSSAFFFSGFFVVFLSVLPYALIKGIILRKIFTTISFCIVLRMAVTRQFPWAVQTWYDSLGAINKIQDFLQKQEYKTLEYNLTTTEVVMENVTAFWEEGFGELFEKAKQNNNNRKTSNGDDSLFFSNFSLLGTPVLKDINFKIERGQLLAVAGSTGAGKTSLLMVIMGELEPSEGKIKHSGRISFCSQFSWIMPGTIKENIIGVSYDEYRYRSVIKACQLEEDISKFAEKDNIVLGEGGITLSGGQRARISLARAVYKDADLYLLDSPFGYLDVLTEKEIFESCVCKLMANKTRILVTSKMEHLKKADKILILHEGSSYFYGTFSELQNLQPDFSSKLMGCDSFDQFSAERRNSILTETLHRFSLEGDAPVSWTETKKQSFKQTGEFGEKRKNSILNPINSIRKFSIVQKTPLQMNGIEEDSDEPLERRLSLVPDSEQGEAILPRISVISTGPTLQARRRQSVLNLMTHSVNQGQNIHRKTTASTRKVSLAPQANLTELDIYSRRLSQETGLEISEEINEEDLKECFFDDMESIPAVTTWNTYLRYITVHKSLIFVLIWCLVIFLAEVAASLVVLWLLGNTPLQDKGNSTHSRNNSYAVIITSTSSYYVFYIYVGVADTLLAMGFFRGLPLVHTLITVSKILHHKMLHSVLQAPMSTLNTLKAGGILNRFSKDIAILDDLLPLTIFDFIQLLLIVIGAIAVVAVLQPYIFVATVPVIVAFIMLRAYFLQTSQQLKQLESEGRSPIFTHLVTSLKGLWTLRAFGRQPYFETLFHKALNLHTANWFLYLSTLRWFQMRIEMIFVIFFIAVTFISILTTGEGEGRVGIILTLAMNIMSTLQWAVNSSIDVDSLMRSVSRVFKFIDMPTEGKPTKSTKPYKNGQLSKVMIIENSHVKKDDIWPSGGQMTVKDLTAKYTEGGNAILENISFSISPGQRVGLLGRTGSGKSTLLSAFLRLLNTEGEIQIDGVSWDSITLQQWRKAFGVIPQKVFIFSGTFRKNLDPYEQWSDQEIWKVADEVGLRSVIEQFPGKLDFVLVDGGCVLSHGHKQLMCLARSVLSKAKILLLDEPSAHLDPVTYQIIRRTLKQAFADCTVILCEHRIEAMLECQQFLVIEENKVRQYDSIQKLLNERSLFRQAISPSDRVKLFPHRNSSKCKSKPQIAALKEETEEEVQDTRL

Compound | EC50 [nM] | Maximum % activity [%]
CC(C)(O)c1cccc([C@H]2C[C@@H](NC(=O)C3(c4ccc5c(c4)OC(F)(F)O5)CC3)CCO2)c1 (racemic) [Example 10, rac-1-(2,2-difluoro-1,3-benzodioxol-5-yl)-N-{(2R,4S)-2-[3-(2-hydroxypropan-2-yl)phenyl]tetrahydro-2H-pyran-4-yl}cyclopropanecarboxamide] | 2090 | 58
CC(C)(O)c1cccc([C@H]2C[C@H](NC(=O)C3(c4ccc5c(c4)OC(F)(F)O5)CC3)CCO2)c1 (racemic) [Example 7, rac-1-(2,2-difluoro-1,3-benzodioxol-5-yl)-N-{(2R,4R)-2-[3-(2-hydroxypropan-2-yl)phenyl]tetrahydro-2H-pyran-4-yl}cyclopropanecarboxamide] | 5560 | 27
O=C(N[C@H]1CCO[C@H](c2ccc(Br)cc2)C1)C1(c2ccc3c(c2)OC(F)(F)O3)CC1 [Example 21, N-[(2S,4S)-2-(4-bromophenyl)tetrahydro-2H-pyran-4-yl]-1-(2,2-difluoro-1,3-benzodioxol-5-yl)cyclopropanecarboxamide] | 7720 | 59
O=C(O)c1ccccc1[C@H]1C[C@@H](NC(=O)C2(c3ccc4c(c3)OC(F)(F)O4)CC2)CCO1 (racemic) [Example 12, rac-2-[(2R,4S)-4-({[1-(2,2-difluoro-1,3-benzodioxol-5-yl)cyclopropyl]carbonyl}amino)tetrahydro-2H-pyran-2-yl]benzoic acid] | 7630 | 108
COC(=O)c1ccc([C@H]2C[C@@H](NC(=O)C3(c4ccc5c(c4)OC(F)(F)O5)CC3)CCO2)cc1 (racemic) [Example 13, methyl rac-4-[(2R,4S)-4-({[1-(2,2-difluoro-1,3-benzodioxol-5-yl)cyclopropyl]carbonyl}amino)tetrahydro-2H-pyran-2-yl]benzoate] | 1160 | 110
COC(=O)c1ccc([C@H]2C[C@H](NC(=O)C3(c4ccc5c(c4)OC(F)(F)O5)CC3)CC(C)(C)O2)cc1 (racemic) [Example 32, methyl rac-4-[(2R,4S)-4-({[1-(2,2-difluoro-1,3-benzodioxol-5-yl)cyclopropyl]carbonyl}amino)-6,6-dimethyltetrahydro-2H-pyran-2-yl]benzoate] | 4120 | 69
COC(=O)c1ccc([C@H]2C[C@@H](NC(=O)C3(c4ccc5c(c4)OC(F)(F)O5)CC3)CC(C)(C)O2)cc1 (racemic) [Example 34, methyl rac-4-[(2R,4R)-4-({[1-(2,2-difluoro-1,3-benzodioxol-5-yl)cyclopropyl]carbonyl}amino)-6,6-dimethyltetrahydro-2H-pyran-2-yl]benzoate] | 1610 | 105
COC(=O)c1ccc([C@@H]2C[C@H](NC(=O)C3(c4ccc5c(c4)OC(F)(F)O5)CC3)CCO2)cc1 [Example 28, methyl 4-[(2S,4R)-4-({[1-(2,2-difluoro-1,3-benzodioxol-5-yl)cyclopropyl]carbonyl}amino)tetrahydro-2H-pyran-2-yl]benzoate] | 3310 | 73
COC(=O)c1cccc([C@H]2C[C@H](NC(=O)C3(c4ccc5c(c4)OC(F)(F)O5)CC3)C[C@@H](c3ccccc3)O2)c1 (racemic) [Example 22, methyl rac-3-[(2R,4R,6S)-4-({[1-(2,2-difluoro-1,3-benzodioxol-5-yl)cyclopropyl]carbonyl}amino)-6-phenyltetrahydro-2H-pyran-2-yl]benzoate] | 2180 | 63
CC1(C)C[C@@H](NC(=O)C2(c3ccc4c(c3)OC(F)(F)O4)CC2)C[C@H](c2ccc(C(=O)O)cc2)O1 (racemic) [Example 33, rac-4-[(2R,4S)-4-({[1-(2,2-difluoro-1,3-benzodioxol-5-yl)cyclopropyl]carbonyl}amino)-6,6-dimethyltetrahydro-2H-pyran-2-yl]benzoic acid] | 3890 | 102
O=C(N[C@@H]1CCO[C@@H](c2cccc(CO)c2)C1)C1(c2ccc3c(c2)OC(F)(F)O3)CC1 (racemic) [Example 6, rac-1-(2,2-difluoro-1,3-benzodioxol-5-yl)-N-{(2R,4R)-2-[3-(hydroxymethyl)phenyl]tetrahydro-2H-pyran-4-yl}cyclopropanecarboxamide] | 5150 | 32
COC(=O)c1cccc([C@H]2C[C@@H](NC(=O)C3(c4ccc5c(c4)OC(F)(F)O5)CC3)C[C@@H](c3ccccc3)O2)c1 (racemic) [Example 23, methyl rac-3-[(2R,4S,6S)-4-({[1-(2,2-difluoro-1,3-benzodioxol-5-yl)cyclopropyl]carbonyl}amino)-6-phenyltetrahydro-2H-pyran-2-yl]benzoate] | 850 | 104

More lines, now with the values ahead:

EC50 [nM] | Maximum % activity [%] | Compound
880 | 111 | COC(=O)c1ccc([C@H]2C[C@@H](NC(=O)C3(c4ccc5c(c4)OC(F)(F)O5)CC3)C[C@@H](c3ccccc3)O2)c(C)c1 (racemic) [Example 62, methyl rac-4-[(2R,4S,6S)-4-({[1-(2,2-difluoro-1,3-benzodioxol-5-yl)cyclopropyl]carbonyl}amino)-6-phenyltetrahydro-2H-pyran-2-yl]-3-methylbenzoate]
2480 | 84 | COC(=O)c1ccc([C@H]2CC(NC(=O)C3(c4ccc5c(c4)OC(F)(F)O5)CC3)C[C@@H](C3CC3)O2)cc1 (mixture of isomers) [Example 38, methyl rac-4-[(2R,6S)-6-cyclopropyl-4-({[1-(2,2-difluoro-1,3-benzodioxol-5-yl)cyclopropyl]carbonyl}amino)tetrahydro-2H-pyran-2-yl]benzoate]
220 | 105 | Cc1cc(C(=O)O)cc([C@H]2C[C@@H](NC(=O)C3(c4ccc5c(c4)OC(F)(F)O5)CC3)C[C@@H](c3ccccc3)O2)c1 (single isomer, unassigned) [Example 75]
570 | 100 | COC(=O)c1ccc([C@H]2C[C@@H](NC(=O)C3(c4ccc5c(c4)OC(F)(F)O5)CC3)CCO2)c(C)c1 (racemic) [Example 36, methyl rac-4-[(2R,4S)-4-({[1-(2,2-difluoro-1,3-benzodioxol-5-yl)cyclopropyl]carbonyl}amino)tetrahydro-2H-pyran-2-yl]-3-methylbenzoate]
830 | 100 | COC(=O)c1ccc([C@H]2C[C@@H](NC(=O)C3(c4ccc5c(c4)OC(F)(F)O5)CC3)C[C@@H](c3ccccc3)O2)cc1 (racemic) [Example 48, methyl rac-4-[(2R,4S,6S)-4-({[1-(2,2-difluoro-1,3-benzodioxol-5-yl)cyclopropyl]carbonyl}amino)-6-phenyltetrahydro-2H-pyran-2-yl]benzoate]
2540 | 82 | O=C(O)c1ccc([C@H]2C[C@H](NC(=O)C3(c4ccc5c(c4)OC(F)(F)O5)CC3)C[C@@H](c3ccccc3)O2)c(F)c1 (racemic) [Example 61, rac-4-[(2R,4R,6S)-4-({[1-(2,2-difluoro-1,3-benzodioxol-5-yl)cyclopropyl]carbonyl}amino)-6-phenyltetrahydro-2H-pyran-2-yl]-3-fluorobenzoic acid]
4560 | 67 | COC(=O)c1ccc([C@H]2C[C@H](NC(=O)C3(c4ccc5c(c4)OC(F)(F)O5)CC3)C[C@@H](C)O2)cc1 (racemic) [Example 46, methyl rac-4-[(2R,4R,6R)-4-({[1-(2,2-difluoro-1,3-benzodioxol-5-yl)cyclopropyl]carbonyl}amino)-6-methyltetrahydro-2H-pyran-2-yl]benzoate]
